Results from patent US20080039432A1, “Active Compound Combinations Having Insecticidal Properties” (priority 2004, published 2008).
Where two headings read alike, the source gives them in different places.

What was measured:
Type in all cases: in vivo
[1] = tested on: Plutella xylostella, resistant strain; settings: Table A, 20 ppm, caterpillars on dipped cabbage leaves
Procedure: Plutella Xylostella Test, Resistant Strain
(§1) To produce a suitable preparation of active compound, 1 part by weight of active compound is mixed with the stated amounts of solvent and emulsifier, and the concentrate is diluted with emulsifier-containing water to the desired concentration.
Cabbage leaves (Brassica oleracea) are treated by being dipped into the active compound preparation of the desired concentration and are populated with caterpillars of the diamondback moth (Plutella xylostella, resistant strain) while the leaves are still moist.
After the desired period of time, the kill in % is determined. 100% means that all caterpillars have been killed; 0% means that none of the caterpillars have been killed. The determined kill rates are entered into Colby's formula.

Myzus persicae = tested on: Myzus persicae
Procedure: as §1
Cabbage leaves (Brassica oleracea) which are heavily infested by the green peach aphid (Myzus persicae) are treated by being dipped into the preparation of active compound of the desired concentration.
After the desired period of time, the kill in % is determiined. 100% means that all aphids have been killed; 0% means that none of the aphids have been killed. The determined kill rates are entered into Colby's formula.

[2] = tested on: Phaedon cochleariae larvae; assay: Phaedon cochleariae larvae test (cabbage leaf dip)
Procedure: Phaedon Cochleariae Larvae Test
as §1
Cabbage leaves (Brassica oleracea) are treated by being dipped into the active compound preparation of the desired concentration and are populated with larvae of the mustard beetle (Phaedon cochleariae) while the leaves are still moist.
After the desired period of time, the kill in % is determined. 100% means that all larvae have been killed; 0% means that none of the larvae have been killed. The determined kill rates are entered into Colby's formula.

## CN/C(=N/[N+](=O)[O-])NCc1cnc(Cl)s1 [clothianidin]
[1]
  Kill in % after 6 days: 0%
Myzus persicae; Table B1, 0.80 ppm
  Kill in % after 1 d: 50%
[2]; Table C2, 4 ppm
  Kill in % after 1 d: 65%

## O=[N+]([O-])N=C1NCCN1Cc1ccc(Cl)nc1 [imidacloprid]
Myzus persicae; Table B1, 0.16 ppm
  Kill in % after 1 d: 20%
Myzus persicae; Table B2, 0.16 ppm
  Kill in % after 1 d: 10%
[2]; Table C1, 4 ppm
  Kill in % after 1 d: 5%
[2]; Table C2, 4 ppm
  Kill in % after 1 d: 20%

## CNC(=O)O/N=C/C(C)(C)SC [aldicarb]
Myzus persicae; Table B1, 4 ppm
  Kill in % after 1 d: 45%
[2]; Table C1, 20 ppm
  Kill in % after 1 d: 25%
[2]; Table C2, 20 ppm
  Kill in % after 1 d: 25%

## ethoprophos
[1]
  Kill in % after 6 days: 5%
Myzus persicae; Table B2, 20 ppm
  Kill in % after 1 d: 0%
